Reference: patent US20250136722A1, “CYTOTOXICITY TARGETING CHIMERAS” (GLAXOSMITHKLINE INTELLECTUAL PROPERTY DEVELOPMENT LIMITED, priority 2021, published 2025)

Columns and labels:
[1] = test system: CCR2+ expressing cells; assay: Alternative dosing strategy of ARM compound to anti-cotinine antibody, blood concentration and CCR2+ cell depletion (Example 206); assay type: in vivo; details: co-dosing vs sequential dosing with anti-cotinine antibody, intravenously
Source text: FIGS. 3A-3B: Alternative dosing strategy of small molecule ARM compound to anti-cotinine antibody, as described in Example 206, with anti-cotinine antibody and small molecule ARM compound (Example 1) co-dosed or sequentially dosed intravenously;
FIG. 5: Alternative dosing strategy of small molecule ARM compound to anti-cotinine antibody, as described in Example 206, with anti-cotinine antibody administered intravenously and ARM compound (Example 1) administered subcutaneously following a 2-hour delay from antibody dosing at various molar ratios of small molecule ARM: antibody; data shown is blood concentration of small molecule ARM compound at various timepoints following administration.

[2] = test system: CCR2 expressing cells (CD11b+Ly6c+ Hi) in peripheral blood; assay: In vivo depletion assay, flow cytometry of peripheral blood (Example 201); set-up: species or system Human CCR2 (hCCR2) knock-in mice (C57 background); details: hCCR2 knock-in mice; IV 0.1 mpk compound + 10 mpk anti-cotinine antibody (SEQ ID NO: 13/14); peripheral blood at 48 hr
Experimental: Stock solution preparation: Stock solutions of compounds of Formula (I) were prepared at 20 mg/mL and 100 mg/mL in DMSO for PK/PD and dose tolerability studies respectively. Stock solutions were stored at −20° C. until further usage.
Formulations preparation: On the day of experiment, the stock solution of the compound of Formula (I) was removed from storage at −20° C. and thawed at room temperature. Anti-cotinine antibody having a heavy chain sequence of SEQ ID NO: 13 and a light chain sequence of SEQ ID NO: 14 (rabbit variable region sequence with mouse IgG2a Fc domain), if required was removed from storage at −80° C. and thawed at room temperature. Antibody vials were immediately transferred into wet ice after thawing. Compounds of Formula (I) were further diluted in DMSO as per experimental requirements.
Formulation composition: The formulation composition was Saline:DMSO:PBS. Saline was added based on the quantity required and then stock solution of the compound of Formula (I) prepared in DMSO, followed by addition of antibody in PBS. Formulations were incubated at room temperature for 30 minutes before administration to the mouse. DMSO was used at 1 to 2% (v/v) in the final formulation.
After bleeding, each mouse was sacrificed by cervical dislocation.
CCR2 depletion in peripheral blood was determined by flow cytometry. Briefly, peripheral blood was collected from all animals at the end of study termination and processed. Blood samples were lysed using 1× RBC Lysis buffer and the resulting cell pellet was washed twice in FACS buffer (HBSS containing 5% FBS). Cells were subjected to Fc blocking using mouse Fc block from Biolegend (Trustain, anti-mouse CD16/32, Cat: 101319) to block non-specific binding followed by surface staining for immune markers (CD45, CD3, CD11b, Ly6C, human CCR2). Surface staining was done for 30 minutes in ice and cells were washed twice to remove unbound antibodies. Cells were stained with 7AAD to determine viability and acquired on BD FACSVerse flow cytometer. Appropriate FMO controls and single-color controls were included in the experiment for gating and compensation respectively.
Percent depletion of CD11b+Ly6c+ Hi cells and CCR2 expression for the different treatment groups was determined.

In the case of CC(C)N(C)[C@@H]1CC[C@H](N2CC[C@H](Nc3ncnc4ccc(C(F)(F)F)cc34)C2=O)[C@H](NC(=O)[C@H]2CC[C@H](NC(=O)CCCO[C@H]3CC[C@H](OCCNC(=O)[C@H]4CC(=O)N(C)[C@@H]4c4cccnc4)CC3)CC2)C1 [Example 1, (2S,3S)-N-(2-(((1R,4S)-4-(4-(((1R,4R)-4-(((1R,2S,5R)-5-(Isopropyl(methyl)amino)-2-((S)-2-oxo-3-((6-(trifluoromethyl)quinazolin-4-yl)amino)pyrrolidin-1-yl)cyclohexyl)carbamoyl)cyclohexyl)amino)-4-oxobutoxy)cyclohexyl)oxy)ethyl)-1-methyl-5-oxo-2-(pyridin-3-yl)pyrrolidine-3-carboxamide], the “PD (percent depletion of CCR2+ expressing cells)” value [1] is reported as “unchanged” and the “PK (blood concentration of small molecule ARM compound)” value [1] is reported as “unchanged”.

In the case of CN1C(=O)C[C@H](C(=O)NCCOCCOCCOCCOCCOCCC(=O)N[C@@H]2C[C@H](NC(C)(C)C)CC[C@@H]2N2CC[C@H](Nc3ncnc4ccc(C(F)(F)F)cc34)C2=O)[C@H]1c1cccnc1 [Example 37], the “% Depletion of CCR2 expressing cells” value [2] is reported as 75%.

For CN1C(=O)C[C@H](C(=O)NCCOCCOCCOCCOCCOCCOCCC(=O)N[C@@H]2C[C@H](NC(C)(C)C)CC[C@@H]2N2CC[C@H](Nc3ncnc4ccc(C(F)(F)F)cc34)C2=O)[C@H]1c1cccnc1 [Example 38], the “% Depletion of CCR2 expressing cells” value [2] was 84.55%.
